The source of these data is publication PMC3479139, “Diverse Small Molecule Inhibitors of Human Apurinic/Apyrimidinic Endonuclease APE1 Identified from a Screen of a Large Public Collection” (PLoS ONE, 2012).

Each structure is given as a SMILES string. Where two headings read alike, the source gives them in different places.

For experiment [1], the target named is T1, APE1 (Homo sapiens, UniProt P27695).
T1 construct: made in house
As to the kind of experiment: Fluorogenic kinetic qHTS APE1 incision assay (primary screen and retest of cherrypicked samples).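 Further: purified APE1 cleaving a fluorophore/dark-quencher labelled 17-mer duplex DNA bearing a tetrahydrofuran AP site, fluorescence rise followed kinetically over the first 2 min, inhibition normalized to controls.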 Format: biochemical.

Experiment [2] concerns the target T1, APE1. The experiment can be described thus: Gel-based APE1 incision assay with fluorescence (TAMRA) detection. Format: biochemical.
Experiment [3] has as its target T1, APE1. The experiment can be described thus: Fluorescence polarization (FP) displacement assay of APE1 binding to AP-DNA probe.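 Further: TAMRA 5′-labeled duplex DNA with THF abasic site (5 nM) and APE1 (20 nM), Mg2+-free buffer, 15 min at room temperature, inhibition seen as lowered polarization.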 For orientation: Polarisation of emitted light reports the rotation of a fluorescent probe.
The target of experiment [4] is double-stranded 17-mer DNA fragment. The experiment can be described thus: ThO (Thiazole Orange) DNA displacement assay.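 Further: miniaturized displacement of the intercalating dye from unlabeled duplex DNA, used to flag nonspecific DNA binders, chiefly intercalators, groove binders may be missed.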 Format: binding. The note with it: read-out: ThO-DNA binding IC50.
Excerpt: The double-stranded 17-mer DNA fragment used in the ThO DNA binding assay was of the same sequence as the fluorogenic HTS substrate but carried no dye labels.
(§1) In order to screen out nonselective compounds, such as non-specific DNA binders and inhibitors of related enzymes, we used a miniaturized ThO DNA displacement assay and a counterscreen against the bacterial endonuclease E. coli Endo IV, respectively, following the previously published protocols [21].
To detect screening hits that inhibit APE1 activity through non-specific DNA interactions, we employed a previously established miniaturized ThO dye displacement assay [21]. […] We note that the ThO assay reports primarily on DNA binders acting through intercalation, while potentially missing other types of DNA binders, such as those acting through the minor groove.
The target in experiment [5] is T2, E. coli Endo IV (Escherichia coli, UniProt P0A6C1).
T2 construct: made in house
The experiment can be described thus: E. coli Endo IV profiling counterscreen.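 Further: selectivity counterscreen of candidate APE1 inhibitors against the bacterial endonuclease Endo IV, run in the same assay format as the primary APE1 high-throughput screen.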 Format: biochemical. For orientation: Counterscreens check selectivity or assay interference.
Excerpt: as §1
To probe the selectivity of the candidate APE1 inhibitors, we tested them against E. coli EndoIV [36], employing the same assay as used in the HTS.

Experiment [6] concerns HeLa cells. The experiment can be described thus: MMS potentiation assay (CellTiter Glo viability). Format: cell-based, human. More on the design: key: N.A., no activity observed; P, positive; I, inconclusive; N.T., not tested. The note with it: for MMS Assay: potentiation of the genotoxic effect of methylmethane sulfonate. As to the method: HeLa cells were plated at 6000 cells/well in DMEM culture medium containing 10% FBS into white solid bottom 384-well cell culture plates. The plates were incubated at 37°C overnight for cell attachment, followed by media replacement. The fresh medium contained serial dilutions of compounds of interest in the presence (0.4 mM final) or absence of MMS. The plates were incubated for 24 h at 37°C. Cell viability was determined by luminescence detection after an addition of 15 µL of CellTiter Glo reagent (Promega, Madison, WI). Percent viability was calculated for each concentration of compound tested in duplicate by relating the corresponding luminescence to that of a negative DMSO vehicle control. MMS potentiation trends were defined as follows: negative (-), if cell viability in the compound-plus-MMS treatment was the same as that of the DMSO-plus-MMS control (overlapping dose-response curves); inconclusive (I), if the shift in the cell viability dose-response upon MMS inclusion relative to compound-alone was less than 30%; and positive (P), if the difference between the compound-plus-MMS and compound-alone curves was at least 30%, and maintained within at least a two-fold compound concentration span.
To examine the biological prospects of the top compounds, we tested their ability to inhibit APE1 DNA repair activity by assessing enhancement of MMS toxicity in mammalian cells. MMS creates methylated-base damage to genomic DNA, which, when excised by an alkylpurine DNA glycosylase, results in a high number of cytotoxic AP sites. We compared the viability of HeLa cells exposed to a dilution series of inhibitor alone to a combination of a fixed MMS concentration with the same dilution series of inhibitor by using a standard CellTiter Glo luminescence assay. This technique measures the number of viable cells in culture based on quantitation of the ATP present, which signals the presence of metabolically active cells. The assay was further optimized for 384-well plates, allowing a high-throughput testing of multiple hits at multiple concentrations, a scope of investigation previously impossible due to the very low throughput of the traditionally applied colony formation assay.
From the 223 compounds found positive in the gel-based APE1 assays, exclusion of the most promiscuous hits, that is, those that were both DNA binders and EndoIV-inhibitory, yielded a set of 170 compounds (Figure 3). This shortened group of hits was tested in the cell-based potentiation assay for their ability to dose-dependently enhance sensitivity of HeLa cells to the alkylating agent MMS.
Background: Cellular ATP, detected with luciferase, serves as a proxy for viable cell number.

The subject of experiment [7] is HeLa cells. As to the kind of experiment: AP site measurement in genomic DNA. Format: cell-based, human. The note with it: for AP sites upon treatment with the inhibitor alone / AP site levels, combination treatment versus MMS-alone: 24 h; for AP sites upon treatment with the inhibitor alone: inhibitor alone vs vehicle; for AP site levels, combination treatment versus MMS-alone / AP site levels, combination versus MMS-alone, repeat testing: 275 µM MMS plus inhibitor; for AP site levels, combination treatment versus MMS-alone: initial test (Figure 8); for AP site levels, combination versus MMS-alone, repeat testing: repeat test (Figure S1). As to the method:
HeLa cells at 80% confluency (6×10^5 cells) were subjected to the following treatments in a 6-well plate for 24 hours at 37°C: 1) DMSO alone, 2) 275 µM MMS, 3) APE1 inhibitors dissolved in DMSO (5–20 µM final compound concentration), and 4) the inhibitors as in treatment 3 in combination with 275 µM MMS. Cells were then harvested and processed using a Qiagen Genomic DNA isolation kit (Germantown, MD). After DNA quantitation, AP sites were measured using the DNA Damage Quantification kit from Dojindo Molecular Technologies (Rockville, MD).
As stated above, the application of the genotoxic agent MMS results in an increase in the level of AP sites within the genome. An effective APE1-targeted inhibitor applied under the conditions of increased genotoxic stress is expected to interfere with the repair of AP sites, while ideally having no effect on the AP site levels when applied as a single agent. Thus, the net effect of treating cells with a combination of MMS and inhibitor would be an increase in the number of AP site lesions. To determine the effect on AP site accumulation caused by treatment with MMS in combination with an APE1 inhibitor, as compared to treatment with MMS or inhibitor alone, we measured AP site levels in the chromosomal DNA from HeLa cells using an aldehyde-reactive probe-based colorimetric assay. The concentrations of MMS and inhibitor (275 µM for MMS and between […] for the inhibitor, respectively) were selected to fall below the onset of cytotoxicity for each agent based on the analysis of the MMS potentiation data shown in Figure 5.

In experiment [8] the test system is histone acetyltransferase (HAT) p300. Set-up: method as in PMID 20534345, PMID 21764752. The note with it: cited from earlier work.
Experiment [9] concerns the target T1, APE1. As to the kind of experiment: Gel-based radiotracer (32P) APE1 incision assay.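 Further: APE1 incision reactions ran 5 min at 37 °C, with cleaved product and intact substrate resolved electrophoretically.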 Format: biochemical. More on the design: concentration or dose not given beside the values. Particulars: percent incision shown; entries 1-112.
The test system of experiment [10] is human immunodeficiency virus integrase. Set-up: method as in PMID 9865384. The note with it: cited from earlier work.
Experiment [11] deals with tubulin. Set-up: method as in PMID 20657644. Particulars: cited from earlier work.
Where [12] appears, read: initial quantitative high-throughput screen, read-out: APE1 qHTS IC50.
The mark [13] stands for this setting: retest of cherrypicked sample, read-out: APE1 Retest IC50.
The mark [14] stands for this setting: estimated IC50, fluorophore detection, entries 113-223, read-out: F-PAGE Assay IC50.
The mark [15] stands for this setting: initial qHTS, 7-point titration, read-out: qHTS, IC50 obtained in the initial quantitative high-throughput screen.

T1 sequence (P27695 whole entry): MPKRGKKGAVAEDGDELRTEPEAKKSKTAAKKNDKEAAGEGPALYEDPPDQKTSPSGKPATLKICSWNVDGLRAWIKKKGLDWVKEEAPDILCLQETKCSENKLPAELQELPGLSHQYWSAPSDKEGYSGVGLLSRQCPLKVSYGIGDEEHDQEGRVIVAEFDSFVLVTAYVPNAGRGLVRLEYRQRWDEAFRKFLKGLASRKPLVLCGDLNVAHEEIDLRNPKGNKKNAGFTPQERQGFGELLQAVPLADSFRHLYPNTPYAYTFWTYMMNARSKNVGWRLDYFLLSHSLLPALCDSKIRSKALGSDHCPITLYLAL

On to `CCOC(=O)c1cc(-c2ccc(/C=C3/C(=O)N(c4ccc(C(=O)O)cc4)N=C3C)o2)ccc1Cl` [MLS001196838], for which the IC50 in experiment [1] (setting [12]) was 8.4 µM; in [1] (setting [13]) it was 25.7 µM; in [2] (setting [14]), 7.9 µM; in [3] (read-out: FP IC50), greater than 57 µM; in experiment [4], 16.2 µM; in [5] (read-out: EndoIV IC50), greater than 57 µM. For the same compound, in experiment [6], the “MMS Assay” value is on record as “P”. Further, the “AP sites upon treatment with the inhibitor alone” value in experiment [7] is on record as “noticeable increase in AP sites”. Further, the “Inhibition of HAT p300” value in [8] is “potent and selective inhibitor”.

`CC1CCN(C2=NN3C(=N)/C(=C\c4ccc(OC(=O)c5ccco5)cc4)C(=O)N=C3S2)CC1` [MLS001076862]: the IC50 in experiment [1] (setting [12]) was 10.6 µM; in [2] (setting [14]) it was 4 µM; in [4], greater than 57 µM; in [5] (read-out: EndoIV IC50), greater than 57 µM. For the same compound, the “MMS Assay” value in experiment [6] is on record as “P”. Besides, the “AP site levels, combination treatment versus MMS-alone” value in [7] is recorded as “no statistical significance”. The “AP sites upon treatment with the inhibitor alone” value in experiment [7] is “noticeable increase in AP sites”.

`O=c1oc2c(cc1O)oc(=O)c1cc(O)c(O)c(O)c12` [MLS000737267, galloflavin]: the IC50 in experiment [1] (setting [12]) is 0.4 µM; in experiment [1] (setting [13]) it was 0.13 µM; in [3] (read-out: FP IC50) it was greater than 57 µM; in experiment [4], 6.3 µM; in experiment [5] (read-out: EndoIV IC50) it was greater than 57 µM. The “Radiotracer Assay (%Activity)” value in [9] was 46%. In addition, the “MMS Assay” value in experiment [6] is listed as “P”. In experiment [7], the “AP site levels, combination treatment versus MMS-alone” value was “no statistical significance”. Also, the “HIV integrase IC50” value in experiment [10] was “low-micromolar”.

As for `COc1ccc(Cc2nnc(NC(=O)Cc3cccs3)s2)cc1OC` [MLS000115025], the IC50 in [1] (setting [15]) is 28.1 µM; in experiment [1] (setting [12]), 28.2 µM; in experiment [1] (setting [13]), 2 µM; in experiment [3] (read-out: FP IC50), greater than 57 µM; in [4], greater than 57 µM; in experiment [5] (read-out: EndoIV IC50), greater than 57 µM. In experiment [9], the “Radiotracer Assay (%Activity)” value is listed as 48%. In addition, the “MMS Assay” value in experiment [6] was “P”. Also, in experiment [7], the “AP site levels, combination versus MMS-alone, repeat testing” value is listed as “support the initially-observed enhancements”. For the same compound, in [7], the “AP site levels, combination treatment versus MMS-alone” value is listed as “obscured by large standard deviations”.

`Cc1c(C(=O)OCC2CCCO2)[nH]c2c1C(=O)CC(c1ccco1)C2` (stereo not shown) [MLS000090966]: the IC50 in experiment [1] (setting [15]) is 7.07 µM; in experiment [1] (setting [12]), 7.1 µM; in [1] (setting [13]) it was 4.5 µM; in experiment [3] (read-out: FP IC50), 15.8 µM; in experiment [4], greater than 57 µM; in experiment [5] (read-out: EndoIV IC50), greater than 57 µM. The “Radiotracer Assay (%Activity)” value in [9] came to 37%. Further, the “MMS Assay” value in experiment [6] is on record as “P”. Further, the “AP site levels, combination treatment versus MMS-alone” value in experiment [7] is given as “obscured by large standard deviations”. In addition, in experiment [11], the “Inhibition of tubulin assembly” value is listed as “effective inhibitor”.

As for `COc1cc2c(ccc3cc(OC)c(OC)c(O)c32)cc1O` [MLS000863573], the IC50 in experiment [1] (setting [12]) turned out to be 0.7 µM; in [1] (setting [13]), 0.6 µM; in experiment [3] (read-out: FP IC50), 12.6 µM; in experiment [4] it was 11.2 µM; in experiment [5], 8.9 µM. For the same compound, the “Radiotracer Assay (%Activity)” value in experiment [9] is listed as 4%. Moreover, the “MMS Assay” value in experiment [6] is recorded as “P”. In experiment [7], the “AP site levels, combination treatment versus MMS-alone” value was “no statistical significance”.

As for `O=C1NC(=O)N(Cc2ccco2)C(=O)C1=CC=Cc1ccco1` [MLS000587064], the IC50 was 5 µM in experiment [1] (APE1 Retest IC50, retest of cherrypicked sample); 2.8 µM in experiment [1] (APE1 qHTS IC50, initial quantitative high-throughput screen); greater than 57 µM in experiment [3]; greater than 57 µM in experiment [4]; greater than 57 µM in [5]. For the same compound, the “Radiotracer Assay (%Activity)” value in experiment [9] amounted to 14%. Further, the “MMS Assay” value in experiment [6] was “P”. In addition, the “AP site levels, combination versus MMS-alone, repeat testing” value in [7] is on record as “support the initially-observed enhancements”. In addition, the “AP site levels, combination treatment versus MMS-alone” value in experiment [7] is listed as “obscured by large standard deviations”.

In the case of `COc1ccc2c(c1)c(=O)oc1cc(OCC(=O)N3CCc4ccccc4C3)ccc12` [MLS000594187], the IC50 is 10 µM in [1] (setting [12]); 3.91 µM in [1] (setting [13]); greater than 57 µM in experiment [3] (read-out: FP IC50); greater than 57 µM in [4]; greater than 57 µM in [5] (read-out: EndoIV IC50). Moreover, the “Radiotracer Assay (%Activity)” value in experiment [9] is 51%. Besides, the “MMS Assay” value in experiment [6] is on record as “P”. In addition, in [7], the “AP site levels, combination treatment versus MMS-alone” value is recorded as “no statistical significance”.

With `COc1ccc2nc3cc(Cl)ccc3c(Nc3cc(CN4CCCC4)c(O)c(CN4CCCC4)c3)c2n1` [MLS001306480, pyronaridine, reference compound], the IC50 in experiment [1] (setting [12]) is 15 µM; in experiment [1] (setting [13]), 6.5 µM; in experiment [2] (entries 113-223: fluorophore detection, estimated IC50, read-out: Gel-based electrophoretic separation assay with fluorophore detection, estimated IC50 (column headed Radiotracer Assay (%Activity))), 12.6 µM; in experiment [3] (read-out: FP IC50) it was 32.4 µM; in experiment [4] it was greater than 57 µM; in [5], 28.9 µM. For the same compound, in experiment [6], the “MMS Assay: potentiation of the genotoxic effect of methylmethane sulfonate” value is listed as “P”. Besides, in [7], the “AP sites upon treatment with the inhibitor alone” value is listed as “noticeable increase in AP sites”.

For the compound `CC(=O)Oc1cc(C(=O)OCC(=O)N2CCc3ccccc3C2)cc(OC(C)=O)c1OC(C)=O` [MLS002252117], the IC50 in experiment [1] (setting [12]) is 5.3 µM; in experiment [1] (setting [13]), 11.5 µM; in experiment [2] (setting [14]), 4.5 µM; in experiment [3] (read-out: FP IC50) it was greater than 57 µM; in [4], greater than 57 µM; in experiment [5] (read-out: EndoIV IC50), greater than 57 µM. For the same compound, the “MMS Assay” value in experiment [6] is “I”.
